Assays:
sedge, umbrella = test: Test B flooded paddy test; type: in vivo, Cyperus difformis; conditions: Flood, 250 g ai/ha; 0 to 100 scale where 0 is no effect and 100 is complete control
Summary of the method: (§1)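 Plants were grown to the 2-leaf stage, then pots were flooded to 3 cm above the soil and compounds were applied directly into the paddy water. That depth was held throughout, and after 13 to 15 days in the greenhouse injury was rated visually against controls on a 0–100 scale (0 no effect, 100 complete control).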

Heteranthera limosa = test: Test B flooded paddy test; type: in vivo; conditions: Flood, 250 g ai/ha; 0 to 100 scale where 0 is no effect and 100 is complete control
Summary of the method: as §1

barnyardgrass [1] = test: Test A postemergence; type: in vivo, Echinochloa crus-galli; conditions: for Plant response rating, Barnyardgrass: 0 to 100 scale, 0 no effect, 100 complete control
Summary of the method: (§2)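 Injury scores run from 0, no effect, to 100, complete control, judged by eye against untreated plants roughly 10 days after treatment. Chemicals carried a surfactant in a non-phytotoxic solvent and went onto loam–sand soil preemergence or onto one- to two-leaf seedlings postemergence.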

giant foxtail [2] = test: Test A postemergence; type: in vivo, Setaria faberii; conditions: for Plant response rating, Foxtail, Giant: 0 to 100 scale, 0 no effect, 100 complete control
Summary of the method: as §2

Italian ryegrass [3] = test: Test A preemergence; type: in vivo, Lolium multiflorum; conditions: for Plant response rating, Ryegrass, Italian: 0 to 100 scale where 0 is no effect and 100 is complete control
Summary of the method: as §2

kochia [4] = test: Test A preemergence; type: in vivo, Kochia scoparia; conditions: for Plant response rating, Kochia: 0 to 100 scale where 0 is no effect and 100 is complete control
Summary of the method: as §2

wheat = test: Test A postemergence; type: in vivo, Triticum aestivum; conditions: for Plant response rating, Wheat: 0 to 100 scale, 0 no effect, 100 complete control
Summary of the method: as §2

barnyardgrass [5] = test: Test B flooded paddy test; type: in vivo, Echinochloa crus-galli; conditions: Flood, 250 g ai/ha; 0 to 100 scale where 0 is no effect and 100 is complete control
Summary of the method: as §1

corn = test: Test A postemergence; type: in vivo, Zea mays; conditions: for Plant response rating, Corn: 0 to 100 scale, 0 no effect, 100 complete control
Summary of the method: as §2

barnyardgrass [6] = test: Test A preemergence; type: in vivo, Echinochloa crus-galli; conditions: for Plant response rating, Barnyardgrass: 0 to 100 scale where 0 is no effect and 100 is complete control
Summary of the method: as §2

blackgrass = test: Test A postemergence; type: in vivo, Alopecurus myosuroides; conditions: for Plant response rating, Blackgrass: 0 to 100 scale, 0 no effect, 100 complete control
Summary of the method: as §2

ragweed [7] = test: Test A preemergence; type: in vivo, Ambrosia elatior; conditions: for Plant response rating, Ragweed: 0 to 100 scale where 0 is no effect and 100 is complete control
Summary of the method: as §2

pigweed [8] = test: Test A postemergence; type: in vivo, Amaranthus retroflexus; conditions: for Plant response rating, Pigweed: 0 to 100 scale, 0 no effect, 100 complete control
Summary of the method: as §2

kochia [9] = test: Test A postemergence; type: in vivo, Kochia scoparia; conditions: for Plant response rating, Kochia: 0 to 100 scale, 0 no effect, 100 complete control
Summary of the method: as §2

giant foxtail [10] = test: Test A preemergence; type: in vivo, Setaria faberii; conditions: for Plant response rating, Foxtail, Giant: 0 to 100 scale where 0 is no effect and 100 is complete control
Summary of the method: as §2

rice = test: Test B flooded paddy test; type: in vivo, Oryza sativa; conditions: Flood, 250 g ai/ha; 0 to 100 scale where 0 is no effect and 100 is complete control
Summary of the method: as §1

ragweed [11] = test: Test A postemergence; type: in vivo, Ambrosia elatior; conditions: for Plant response rating, Ragweed: 0 to 100 scale, 0 no effect, 100 complete control
Summary of the method: as §2

pigweed [12] = test: Test A preemergence; type: in vivo, Amaranthus retroflexus; conditions: for Plant response rating, Pigweed: 0 to 100 scale where 0 is no effect and 100 is complete control
Summary of the method: as §2

Italian ryegrass [13] = test: Test A postemergence; type: in vivo, Lolium multiflorum; conditions: for Plant response rating, Ryegrass, Italian: 0 to 100 scale, 0 no effect, 100 complete control
Summary of the method: as §2

galium = test: Test A postemergence; type: in vivo, Galium aparine; conditions: for Plant response rating, Galium: 0 to 100 scale, 0 no effect, 100 complete control
Summary of the method: as §2

[14] = 125 g ai/ha, 0 to 100 scale where 0 is no effect and 100 is complete control
[15] = 31 g ai/ha, visual, approximately 10 days

With `Fc1cnc(Oc2cccc(F)c2-n2cc(OCC(F)(F)F)cn2)nc1` [Compound 126] the “Plant response rating, Sedge, Umbrella” value (sedge, umbrella) was 20, the “Plant response rating, Ducksalad” value (Heteranthera limosa) was 65 and the “Plant response rating, Barnyardgrass” value (barnyardgrass [1]; 31 g ai/ha) was 10. For the same molecule, the “Barnyardgrass plant response rating” value (barnyardgrass [1]; [14]) was 40, the “Plant response rating, Foxtail, Giant” value (giant foxtail [2]; 31 g ai/ha) was 10 and the “Foxtail, Giant plant response rating” value (giant foxtail [2]; [14]) was 50. For the same molecule, the “Ryegrass, Italian plant response rating (0 to 100 scale)” value (Italian ryegrass [3]; 31 g ai/ha) was 0, the “Plant response rating, Ryegrass, Italian” value (Italian ryegrass [3]; 125 g ai/ha) was 0 and the “Kochia plant response rating (0 to 100 scale)” value (kochia [4]; 31 g ai/ha) was 40. For the same molecule, the “Plant response rating, Kochia” value (kochia [4]; 125 g ai/ha) was 90, the “Plant response rating, Wheat” value (wheat; 31 g ai/ha) was 0 and the “Wheat plant response rating” value (wheat; [14]) was 10. The “Plant response rating, Barnyardgrass” value (barnyardgrass [5]) was 0, the “Plant response rating, Corn” value (corn; 31 g ai/ha) was 0 and the “Corn plant response rating” value (corn; [14]) was 20. The “Barnyardgrass plant response rating (0 to 100 scale)” value (barnyardgrass [6]; 31 g ai/ha) was 10, the “Plant response rating, Barnyardgrass” value (barnyardgrass [6]; 125 g ai/ha) was 80 and the “Plant response rating, Blackgrass” value (blackgrass; 31 g ai/ha) was 10. For the same molecule, the “Blackgrass plant response rating” value (blackgrass; [14]) was 20, the “Ragweed plant response rating (0 to 100 scale)” value (ragweed [7]; 31 g ai/ha) was 0 and the “Plant response rating, Ragweed” value (ragweed [7]; 125 g ai/ha) was 20. The “Plant response rating, Pigweed” value (pigweed [8]; 31 g ai/ha) was 50, the “Pigweed plant response rating” value (pigweed [8]; [14]) was 80 and the “Plant response rating, Kochia” value (kochia [9]; 31 g ai/ha) was 40. For the same molecule, the “Kochia plant response rating” value (kochia [9]; [14]) was 100, the “Foxtail, Giant plant response rating (0 to 100 scale)” value (giant foxtail [10]; 31 g ai/ha) was 50 and the “Plant response rating, Foxtail, Giant” value (giant foxtail [10]; 125 g ai/ha) was 100. For the same molecule, the “Plant response rating, Rice” value (rice) was 0, the “Plant response rating, Ragweed” value (ragweed [11]; 31 g ai/ha) was 10 and the “Ragweed plant response rating” value (ragweed [11]; [14]) was 50. The “Pigweed plant response rating (0 to 100 scale)” value (pigweed [12]; 31 g ai/ha) was 80, the “Plant response rating, Pigweed” value (pigweed [12]; 125 g ai/ha) was 100 and the “Plant response rating, Ryegrass, Italian” value (Italian ryegrass [13]; 31 g ai/ha) was 0. For the same molecule, the “Ryegrass, Italian plant response rating” value (Italian ryegrass [13]; [14]) was 10, the “Plant response rating, Galium” value (galium; 31 g ai/ha) was 20 and the “Galium plant response rating” value (galium; [14]) was 60.
`Fc1cnc(Oc2ccccc2-n2cc(OCC(F)(F)F)cn2)nc1` [Compound 241] was tested, and the “Plant response rating, Sedge, Umbrella” value (sedge, umbrella) was 0, the “Plant response rating, Ducksalad” value (Heteranthera limosa) was 40 and the “Plant response rating, Barnyardgrass” value (barnyardgrass [1]; 31 g ai/ha) was 0. For the same molecule, the “Plant response rating, Barnyardgrass” value (barnyardgrass [1]; 125 g ai/ha) was 10, the “Plant response rating, Foxtail, Giant” value (giant foxtail [2]; 31 g ai/ha) was 0 and the “Plant response rating, Foxtail, Giant” value (giant foxtail [2]; 125 g ai/ha) was 20. The “Plant response rating, Ryegrass, Italian” value (Italian ryegrass [3]; [15]) was 0, the “Ryegrass, Italian plant response rating (0 to 100 scale)” value (Italian ryegrass [3]; 125 g ai/ha) was 0 and the “Plant response rating, Kochia” value (kochia [4]; [15]) was 50. For the same molecule, the “Kochia plant response rating (0 to 100 scale)” value (kochia [4]; 125 g ai/ha) was 100, the “Plant response rating, Wheat” value (wheat; 31 g ai/ha) was 0 and the “Plant response rating, Wheat” value (wheat; 125 g ai/ha) was 10. The “Plant response rating, Barnyardgrass” value (barnyardgrass [5]) was 0, the “Plant response rating, Corn” value (corn; 31 g ai/ha) was 0 and the “Plant response rating, Corn” value (corn; 125 g ai/ha) was 10. The “Plant response rating, Barnyardgrass” value (barnyardgrass [6]; [15]) was 10, the “Barnyardgrass plant response rating (0 to 100 scale, 0 is no effect, 100 is complete control)” value (barnyardgrass [6]; 125 g ai/ha) was 60 and the “Plant response rating, Blackgrass” value (blackgrass; 31 g ai/ha) was 0. The “Plant response rating, Blackgrass” value (blackgrass; 125 g ai/ha) was 20, the “Plant response rating, Ragweed” value (ragweed [7]; [15]) was 0 and the “Ragweed plant response rating (0 to 100 scale)” value (ragweed [7]; 125 g ai/ha) was 40. The “Plant response rating, Pigweed” value (pigweed [8]; 31 g ai/ha) was 40, the “Plant response rating, Pigweed” value (pigweed [8]; 125 g ai/ha) was 80 and the “Plant response rating, Kochia” value (kochia [9]; 31 g ai/ha) was 50. The “Plant response rating, Kochia” value (kochia [9]; 125 g ai/ha) was 90, the “Plant response rating, Foxtail, Giant” value (giant foxtail [10]; [15]) was 50 and the “Foxtail, Giant plant response rating (0 to 100 scale)” value (giant foxtail [10]; 125 g ai/ha) was 100. For the same molecule, the “Plant response rating, Rice” value (rice) was 0, the “Plant response rating, Ragweed” value (ragweed [11]; 31 g ai/ha) was 10 and the “Plant response rating, Ragweed” value (ragweed [11]; 125 g ai/ha) was 30. The “Plant response rating, Pigweed” value (pigweed [12]; [15]) was 80, the “Pigweed plant response rating (0 to 100 scale)” value (pigweed [12]; 125 g ai/ha) was 100 and the “Plant response rating, Ryegrass, Italian” value (Italian ryegrass [13]; 31 g ai/ha) was 0. For the same molecule, the “Plant response rating, Ryegrass, Italian” value (Italian ryegrass [13]; 125 g ai/ha) was 0, the “Plant response rating, Galium” value (galium; 31 g ai/ha) was 40 and the “Plant response rating, Galium” value (galium; 125 g ai/ha) was 60.

Reference: patent US9695155B2, “Herbicidal substituted pyrimidinyloxy benzene compounds” (E. I. DU PONT DE NEMOURS AND COMPANY, priority 2013, dated 2017)
